Test systems include EKVX NSCLC; HL-60(TB) leukemia; SN12C renal; NCI-H23 lung; SK-OV-3 ovarian; KM12 colon; SW-620 colon; CAKI-1 renal; IGROV1 ovarian; ACHN renal; NCI-H226 lung; RPMI-8226 leukemia.
Assay in all cases: NCI anticancer screen, dose series, 48 h

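Five concentrations, 48 hours, 96-well plates. Here, GI50 denotes the concentration required for 50% inhibition of growth. TGI marks complete inhibition of growth.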

On to `O=c1c2cc(I)ccc2nc(-c2cccs2)n1/N=C/c1ccccc1`, for which the TGI in the test with EKVX NSCLC, with HL-60(TB) leukemia, with SN12C renal, in the test on NCI-H23 lung, with SK-OV-3 ovarian and with KM12 colon was over 100 µM throughout. The TGI with SW-620 colon, in the test with CAKI-1 renal, in the test with IGROV1 ovarian, in the test with ACHN renal, in the test on NCI-H226 lung and in the test with RPMI-8226 leukemia was over 100 µM in each case.
For `N#Cc1c(O)c2ccccc2[nH]c1=O`, the TGI in the test with EKVX NSCLC, in the test with HL-60(TB) leukemia, in the test with SN12C renal, in the test on NCI-H23 lung, with SK-OV-3 ovarian and with KM12 colon was over 100 µM throughout. The TGI in the test with SW-620 colon, with CAKI-1 renal, with IGROV1 ovarian, with ACHN renal, with NCI-H226 lung and in the test on RPMI-8226 leukemia was over 100 µM throughout.
Regarding `O=C1/C(=C/c2ccc(Cl)cc2)CSC/C1=C\c1ccc(Cl)cc1`, the TGI in the test with EKVX NSCLC amounted to 41.7 µM; in the test with HL-60(TB) leukemia it was 3.69 µM; in the test with SN12C renal it was 9.52 µM; with NCI-H23 lung it was 11.8 µM; in the test on SK-OV-3 ovarian it was 16.5 µM; with KM12 colon it was 4.47 µM. The TGI amounted to 13.4 µM with SW-620 colon; 11.8 µM in the test with CAKI-1 renal; 3.65 µM in the test on IGROV1 ovarian; 12.6 µM in the test on ACHN renal; 5.59 µM in the test on NCI-H226 lung; 5 µM with RPMI-8226 leukemia.
Turning to `CN(CCCn1ccnc1[N+](=O)[O-])CCCn1ccnc1[N+](=O)[O-]`, the TGI in the test on EKVX NSCLC, in the test on HL-60(TB) leukemia, in the test with SN12C renal, in the test with NCI-H23 lung, in the test with SK-OV-3 ovarian and in the test with KM12 colon was over 100 µM throughout. The TGI in the test with SW-620 colon, in the test on CAKI-1 renal, in the test with IGROV1 ovarian, with ACHN renal, in the test on NCI-H226 lung and in the test on RPMI-8226 leukemia was over 100 µM each time.
Take `O=c1c([OH2+])c(-c2ccc(O)cc2[O-])oc2cc(O)cc([O-])c12.O=c1c([OH2+])c(-c2ccc(O)cc2[O-])oc2cc(O)cc([O-])c12.[Ti+4]`: the TGI with EKVX NSCLC, in the test with HL-60(TB) leukemia, in the test on SN12C renal, in the test with NCI-H23 lung, with SK-OV-3 ovarian and in the test on KM12 colon was over 100 µM in each case. Moreover, the TGI in the test on SW-620 colon, in the test on CAKI-1 renal, in the test with IGROV1 ovarian, with ACHN renal, in the test on NCI-H226 lung and in the test with RPMI-8226 leukemia was over 100 µM in each case. The GI50 in the test on SK-OV-3 ovarian and with RPMI-8226 leukemia was over 100 µM throughout.
For the compound `CCOC(=O)C(=O)NC12CC3CC(CC(C3)C1)C2`, the TGI in the test with EKVX NSCLC, in the test on HL-60(TB) leukemia, in the test on SN12C renal, in the test on NCI-H23 lung, in the test with SK-OV-3 ovarian and with KM12 colon was over 100 µM each time. The TGI with SW-620 colon, in the test with CAKI-1 renal, with IGROV1 ovarian, in the test on ACHN renal, in the test on NCI-H226 lung and with RPMI-8226 leukemia was over 100 µM throughout.
With `O=Nc1c(O)cc(Nc2cccnc2)c2ccccc12`, the TGI with EKVX NSCLC is over 100 µM; in the test on HL-60(TB) leukemia, 5.65 µM; in the test with SN12C renal, over 100 µM; with NCI-H23 lung, 76 µM; with SK-OV-3 ovarian, over 100 µM; with KM12 colon it was 90.6 µM. Besides, the TGI in the test on SW-620 colon was 45.5 µM; in the test with CAKI-1 renal, over 100 µM; in the test on IGROV1 ovarian, 49.9 µM; with ACHN renal it was over 100 µM; with NCI-H226 lung it was over 100 µM; in the test with RPMI-8226 leukemia it was 85 µM.
Turning to `CCCC(=O)NC(Nc1ccc(S(=O)(=O)Nc2ccc(OC)nn2)cc1)(C(F)(F)F)C(F)(F)F`, the TGI in the test on EKVX NSCLC, with HL-60(TB) leukemia, with SN12C renal, with NCI-H23 lung, with SK-OV-3 ovarian and in the test with KM12 colon was over 100 µM in each case. Moreover, the TGI in the test with SW-620 colon, in the test on CAKI-1 renal, in the test with IGROV1 ovarian, in the test on ACHN renal, in the test on NCI-H226 lung and in the test with RPMI-8226 leukemia was over 100 µM in each case.
Regarding `COc1ccc(/C=C/C(=O)c2ccc(OC(=O)/C=C/c3ccccc3)cc2)cc1`, the TGI is over 92.2 µM in the test with EKVX NSCLC; 33.7 µM in the test with HL-60(TB) leukemia; over 69.7 µM with SN12C renal; 73.8 µM in the test on NCI-H23 lung; over 100 µM with SK-OV-3 ovarian; 26.4 µM with KM12 colon. The TGI is 98.9 µM in the test with SW-620 colon; over 69.2 µM with CAKI-1 renal; over 77.7 µM with IGROV1 ovarian; over 100 µM in the test on ACHN renal; over 100 µM in the test on NCI-H226 lung; 24.7 µM in the test with RPMI-8226 leukemia.
On to `COc1cccc(/C=C\c2ccc(O)cc2)c1`, for which the TGI with EKVX NSCLC was over 100 µM; in the test on HL-60(TB) leukemia, 2.92 µM; in the test with SN12C renal, over 68.3 µM; with NCI-H23 lung, 39.6 µM; with SK-OV-3 ovarian, over 100 µM; in the test on KM12 colon, 33.3 µM. In addition, the TGI with SW-620 colon is over 90.7 µM; with CAKI-1 renal, over 84.1 µM; in the test with IGROV1 ovarian it was over 100 µM; in the test on ACHN renal, over 89.2 µM; in the test with NCI-H226 lung it was over 88.8 µM; in the test with RPMI-8226 leukemia, over 100 µM.
`COc1cc2ccc1OCc1cccc(n1)COc1ccc(cc1OC)C=NCCNCCN=C2`: the TGI in the test on EKVX NSCLC, in the test on HL-60(TB) leukemia, in the test on SN12C renal, in the test with NCI-H23 lung, in the test with SK-OV-3 ovarian and in the test with SW-620 colon was over 100 µM each time. Further, the TGI in the test on CAKI-1 renal, in the test with IGROV1 ovarian, in the test with ACHN renal, in the test with NCI-H226 lung and in the test on RPMI-8226 leukemia was over 100 µM throughout.

Values taken from PubChem BioAssay (NCI).
